Results taken from patent US12667106B2, “Stabilized mutants of quorum quenching lactonase and use thereof in treatment of pathogens” (priority 2019, dated 2026).

Key:
[1] = tested on: Erwinia amylovora; assay type: in vivo; settings: 6 days post inoculation, 4 ppm, growth chamber
[2] = tested on: Erwinia amylovora; assay type: in vivo; settings: field, 13 days post inoculation, FIG. 5C

CCn1cc(C(=O)O)c(=O)c2cc3c(cc21)OCO3 [oxolinic acid]
inhibition of flower infection relative to untreated control [1]: 45%
inhibition of fire blight symptoms [2]: 70%
